Laboratory results taken from US8338565B2, “Macrocyclic compounds for inhibition of tumor necrosis factor alpha” (Ensemble Therapeutics Corporation, priority 2008, dated 2012).
Numbered stars: 1 amine (or outer) side, 2 acyl side, 3 side chain; on linkers, the order of the positions; unused ones are H or OH. Bridge positions count the residues as written; N and C are the ends. Square brackets hold non-standard residues; d marks the D form. Peptide text beside a SMILES is read from it. Tartaroyl(2R,3R-(OAc)2) = CC(=O)O[C@@H](C(=O)[*:1])[C@@H](OC(C)=O)C(=O)[*:2]; Phe(3-Ph) = N[C@@H](Cc1cccc(-c2ccccc2)c1)C(=O)O; Phe(4-CF3) = N[C@@H](Cc1ccc(C(F)(F)F)cc1)C(=O)O; Phe(4-COOH) = N[C@@H](Cc1ccc(C(=O)O)cc1)C(=O)O; Phe(2,4-Cl2) = N[C@@H](Cc1ccc(Cl)cc1Cl)C(=O)O; dPhe(2-CF3) = N[C@H](Cc1ccccc1C(F)(F)F)C(=O)O; dPhe(3-CN) = N#Cc1cccc(C[C@@H](N)C(=O)O)c1; Bip = N[C@@H](Cc1ccc(-c2ccccc2)cc1)C(=O)O; dBip = N[C@H](Cc1ccc(-c2ccccc2)cc1)C(=O)O; dPhe(4-NH2) = Nc1ccc(C[C@@H](N)C(=O)O)cc1; Phe(4-NH2) = Nc1ccc(C[C@H](N)C(=O)O)cc1; d(hPhe) = N[C@H](CCc1ccccc1)C(=O)O; hPhe = N[C@@H](CCc1ccccc1)C(=O)O; d3Pal = N[C@H](Cc1cccnc1)C(=O)O; d2Thi = N[C@H](Cc1cccs1)C(=O)O; dPhg = N[C@@H](C(=O)O)c1ccccc1; Suc = O=C(CCC(=O)[*:2])[*:1]; GABA = NCCCC(=O)O; βAla = NCCC(=O)O

Biological target: T1, TNFα / TNFα receptor (TNFα R1/Fc) (Homo sapiens, UniProt P01375)
T1 construct: purchased R&D Systems
T1 sequence (P01375 77-233 limits assumed, species assumed): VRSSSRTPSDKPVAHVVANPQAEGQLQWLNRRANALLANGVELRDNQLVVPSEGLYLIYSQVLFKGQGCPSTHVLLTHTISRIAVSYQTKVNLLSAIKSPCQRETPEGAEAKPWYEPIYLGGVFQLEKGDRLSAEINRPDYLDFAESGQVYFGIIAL
Test: Inhibition of binding of TNFα to the TNFα receptor (plate ELISA competition)
Settings: Activity (IC50, inhibition of TNFα binding to TNFα R1/Fc), Table 2
Outline: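 Compound dilutions were preincubated 30 min at RT with 8.33 nM TNFα R1/Fc in PBST with 2% DMSO, then added to wells coated with 15 nM TNFα for 30 min. Bound receptor was detected with HRP anti-human Fc and TMB, read as A450.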

`O=C1COc2ccc(cc2)C[C@@H](C(=O)N[C@@H](Cc2ccccc2)c2nnn[nH]2)NC(=O)[C@H](Cc2ccccc2)NC(=O)[C@@H](Cc2ccc(-c3ccccc3)cc2)NC(=O)[C@H](Cc2cccs2)N1` [Compound 590] showed an IC50 of under 10 µM.

Same assay, conditions: Table 2; read-out: Activity (IC50, inhibition of TNFα binding to TNFα R1/Fc)

Compared with `CC(=O)O[C@H]1C(=O)Nc2ccc(cc2)C[C@H](C(=O)O)NC(=O)[C@@H](Cc2ccccc2)NC(=O)[C@H](Cc2ccc(Cl)cc2Cl)NC(=O)[C@@H](Cc2ccccc2)NC(=O)[C@@H]1OC(C)=O` [Compound 233] ([dF][Phe(2,4-Cl2)][dF][dPhe(4-NH2)]-OH; linker N-4 via Tartaroyl(2R,3R-(OAc)2)), `O=C(O)[C@@H]1Cc2ccc(cc2)NC(=O)[C@H](O)[C@@H](O)C(=O)N[C@@H](Cc2cccs2)C(=O)N[C@H](Cc2ccc(-c3ccccc3)cc2)C(=O)N[C@H](Cc2ccccc2)C(=O)N1` [Compound 272] is higher in IC50: 30 to 100 µM for the first, over 100 µM for the second.

`O=C(O)CC[C@H](NC(=O)[C@@H]1Cc2ccc(cc2)OCC(=O)N[C@H](Cc2cccs2)C(=O)N[C@@H](Cc2ccc(-c3ccccc3)cc2)C(=O)N[C@H](CCc2ccccc2)C(=O)N1)C(=O)O` [Compound 308] and `O=C1COc2ccc(cc2)C[C@@H](C(=O)O)NC(=O)[C@@H](Cc2ccccc2)NC(=O)[C@@H](Cc2ccc(-c3ccccc3)cc2)NC(=O)[C@@H](Cc2cccs2)N1` [Compound 209] cannot be ordered by IC50: over 100 µM for the first, over 100 µM for the second.

Compared with `O=C1CCC(=O)N[C@H](Cc2cccs2)C(=O)N[C@@H](Cc2ccc(-c3ccccc3)cc2)C(=O)N[C@H](Cc2ccccc2C(F)(F)F)C(=O)N[C@H](C(=O)O)Cc2ccc(cc2)N1` [Compound 77] ([d2Thi][Bip][dPhe(2-CF3)][Phe(4-NH2)]-OH; linker N-4 via Suc), `O=C1CCC(=O)N[C@H](Cc2cccs2)C(=O)N[C@@H](Cc2ccc(-c3ccccc3)cc2)C(=O)N[C@H](Cc2cccnc2)C(=O)N[C@H](C(=O)O)Cc2ccc(cc2)N1` [Compound 51] ([d2Thi][Bip][d3Pal][Phe(4-NH2)]-OH; linker N-4 via Suc) is higher in IC50: 30 to 100 µM for the first, over 100 µM for the second.

Going from `O=C1COc2ccc(cc2)C[C@@H](C(=O)NCCCS(=O)(=O)O)NC(=O)[C@H](CCc2ccccc2)NC(=O)[C@@H](Cc2ccc(-c3ccccc3)cc2)NC(=O)[C@H](Cc2ccncc2)N1` [Compound 599] to `O=C1COc2ccc(cc2)C[C@@H](C(=O)NCCO)NC(=O)[C@H](CCc2ccccc2)NC(=O)[C@@H](Cc2ccc(-c3ccccc3)cc2)NC(=O)[C@H](Cc2ccncc2)N1` [Compound 578], the IC50 rises from under 10 µM to over 100 µM.

`O=C1N[C@H](Cc2ccccc2)C(=O)N[C@@H](C(=O)O)Cc2ccc(cc2)NC(=O)[C@H](O)[C@@H](O)C(=O)N[C@@H](Cc2cccs2)C(=O)N[C@H]1Cc1ccc(-c2ccccc2)cc1` [Compound 277] and `O=C1N[C@@H](Cc2ccccc2)C(=O)N[C@@H](C(=O)O)Cc2ccc(cc2)NC(=O)[C@H](O)[C@@H](O)C(=O)N[C@@H](Cc2cccs2)C(=O)N[C@H]1Cc1ccc(-c2ccccc2)cc1` [Compound 280] cannot be ordered by IC50: over 100 µM for the first, over 100 µM for the second.

`O=C1N[C@H](CCc2ccccc2)C(=O)N[C@@H](Cc2ccc(-c3ccccc3)cc2)C(=O)N[C@H](Cc2ccccc2)C(=O)N[C@H](C(=O)O)Cc2ccc1cc2` [Compound 337] ([d(hPhe)][Bip][dF][Phe(4-COOH)]-OH; lactam N-4) and `O=C1CCNC(=O)c2ccc(cc2)C[C@@H](C(=O)O)NC(=O)[C@@H](Cc2ccccc2)NC(=O)[C@@H](Cc2ccc(-c3ccccc3)cc2)NC(=O)[C@H](CCc2ccccc2)N1` [Compound 468] ([βAla][hPhe][dBip][dF][Phe(4-COOH)]-OH; lactam N-5) cannot be ordered by IC50: over 100 µM for the first, over 100 µM for the second.

Going from `O=C1CCC(=O)N[C@H](CCc2ccccc2)C(=O)N[C@@H](Cc2ccc(-c3ccccc3)cc2)C(=O)N[C@H](Cc2ccccc2)C(=O)N[C@H](C(=O)N[C@@H](Cc2ccc(O)cc2)C(=O)O)Cc2ccc(cc2)N1` [Compound 471] ([d(hPhe)][Bip][dF][Phe(4-NH2)]Y-OH; linker N-4 via Suc) to `O=C(O)CCCNC(=O)[C@@H]1Cc2ccc(cc2)NC(=O)CCC(=O)N[C@H](CCc2ccccc2)C(=O)N[C@@H](Cc2ccc(-c3ccccc3)cc2)C(=O)N[C@H](Cc2ccccc2)C(=O)N1` [Compound 354] ([d(hPhe)][Bip][dF][Phe(4-NH2)][GABA]-OH; linker N-4 via Suc), the IC50 rises from under 10 µM to over 100 µM.

Going from `O=C1COc2ccc(cc2)C[C@@H](C(=O)O)NC(=O)[C@H](Cc2ccccc2)NC(=O)[C@H](Cc2cccc(C(F)(F)F)c2)NC(=O)[C@H](Cc2cccs2)N1` [Compound 400] to `O=C1COc2ccc(cc2)C[C@@H](C(=O)O)NC(=O)[C@H](Cc2ccccc2)NC(=O)[C@H](Cc2ccc(-c3ccccc3)cc2)NC(=O)[C@@H](Cc2cccs2)N1` [Compound 213], the IC50 rises from under 10 µM to over 100 µM.

First: NCCCC(=O)N[C@H]1CC(=O)Nc2ccc(cc2)C[C@@H](C(=O)N[C@@H](Cc2ccccc2)C(=O)O)NC(=O)[C@@H](Cc2ccccc2)NC(=O)[C@H](Cc2ccc(-c3ccccc3)cc2)NC(=O)[C@@H](Cc2cccs2)NC1=O [Compound 529] (H-[GABA]D[d2Thi][Bip][dF][Phe(4-NH2)]F-OH; lactam 2-6)
Second: O=C(O)[C@H](Cc1ccccc1)NC(=O)[C@H]1Cc2ccc(cc2)NC(=O)[C@H](O)[C@@H](O)C(=O)N[C@@H](Cc2cccs2)C(=O)N[C@H](Cc2ccc(-c3ccccc3)cc2)C(=O)N[C@@H](CCc2ccccc2)C(=O)N1 [Compound 432]
The IC50 of the first is higher: over 100 µM for the first, under 10 µM for the second.

`O=C1COc2ccc(cc2)C[C@@H](C(=O)O)NC(=O)[C@H](Cc2ccc(-c3cccnc3)cc2)NC(=O)[C@@H](Cc2ccc(-c3ccccc3)cc2)NC(=O)[C@H](Cc2ccncc2)N1` [Compound 644] and `O=C1COc2ccc(cc2)C[C@@H](C(=O)O)NC(=O)[C@H](Cc2ccccc2C(F)(F)F)NC(=O)[C@@H](Cc2ccc(-c3ccccc3)cc2)NC(=O)[C@H](Cc2ccncc2)N1` [Compound 649] cannot be ordered by IC50: under 10 µM for the first, under 10 µM for the second.

First: NCCCC[C@H](NC(=O)[C@@H]1Cc2ccc(cc2)NC(=O)CCC(=O)N[C@H](Cc2cccs2)C(=O)N[C@@H](Cc2ccc(-c3ccccc3)cc2)C(=O)N[C@H](Cc2ccccc2)C(=O)N1)C(=O)O [Compound 28] ([d2Thi][Bip][dF][Phe(4-NH2)]K-OH; linker N-4 via Suc)
Second: O=C1CCC(=O)N[C@H](Cc2cccs2)C(=O)N[C@@H](Cc2ccc(-c3ccccc3)cc2)C(=O)N[C@H](CCc2ccccc2)C(=O)Nc2ccc(cc2)C[C@@H](C(=O)O)N1 [Compound 551]
The IC50 of the first is lower: under 10 µM for the first, 30 to 100 µM for the second. The first is the more potent here.

`O=C1COc2ccc(cc2)C[C@@H](C(=O)O)NC(=O)[C@@H](CCc2ccccc2)NC(=O)[C@H](Cc2ccc(-c3ccccc3)cc2)NC(=O)[C@@H](Cc2ccc(F)cc2)N1` [Compound 519] and `CC(C)(C)c1ccc(C[C@@H]2NC(=O)COc3ccc(cc3)C[C@@H](C(=O)O)NC(=O)[C@H](CCc3ccccc3)NC(=O)[C@@H](Cc3ccc(-c4ccccc4)cc3)NC2=O)cc1` [Compound 515] fall in the same range of IC50: 10 to 30 µM for the first, 10 to 30 µM for the second.

First: N#Cc1cccc(C[C@H]2NC(=O)CCC(=O)Nc3ccc(cc3)C[C@@H](C(=O)O)NC(=O)[C@@H](Cc3ccccc3)NC(=O)[C@H](Cc3ccc(C(F)(F)F)cc3)NC2=O)c1 [Compound 130] ([dPhe(3-CN)][Phe(4-CF3)][dF][Phe(4-NH2)]-OH; linker N-4 via Suc)
Second: COC(=O)[C@@H]1Cc2ccc(cc2)NC(=O)CCC(=O)N[C@H](CC(=O)O)C(=O)N[C@@H](Cc2ccc(C(F)(F)F)cc2)C(=O)N[C@H](Cc2ccccc2)C(=O)N1 [Compound 206] ([dD][Phe(4-CF3)][dF][Phe(4-NH2)]-OMe; linker N-4 via Suc)
The IC50 of the first is lower: 10 to 30 µM for the first, over 100 µM for the second. The first is the more potent here.

First: O=C(O)[C@@H]1Cc2ccc(cc2)NC(=O)[C@H](O)[C@@H](O)C(=O)N[C@@H](Cc2cccs2)C(=O)N[C@@H](Cc2ccc(-c3ccccc3)cc2)C(=O)N[C@H](Cc2ccccc2)C(=O)N1 [Compound 270]
Second: COc1ccc(-c2ccc(C[C@@H]3NC(=O)[C@@H](Cc4cccs4)NC(=O)[C@H](O)[C@@H](O)C(=O)Nc4ccc(cc4)C[C@@H](C(=O)O)NC(=O)[C@@H](Cc4ccccc4)NC3=O)cc2)cc1 [Compound 333]
The IC50 of the first is higher: over 100 µM for the first, 30 to 100 µM for the second. The second is the more potent here.

First: O=C1CCC(=O)N[C@H](Cc2cccs2)C(=O)N[C@@H](Cc2ccc(-c3ccccc3)cc2)C(=O)N[C@H](c2ccccc2)C(=O)N[C@H](C(=O)O)Cc2ccc(cc2)N1 [Compound 76] ([d2Thi][Bip][dPhg][Phe(4-NH2)]-OH; linker N-4 via Suc)
Second: O=C(O)[C@@H]1Cc2ccc(cc2)NC(=O)[C@@H]2CCCC[C@@H]2C(=O)N[C@H](Cc2cccs2)C(=O)N[C@@H](Cc2ccc(-c3ccccc3)cc2)C(=O)N[C@H](Cc2ccccc2)C(=O)N1 [Compound 187]
The IC50 of the first is lower: 10 to 30 µM for the first, over 100 µM for the second.

First: O=C1CCNC(=O)c2ccc(cc2)C[C@@H](C(=O)O)NC(=O)[C@H](Cc2ccccc2)NC(=O)[C@@H](Cc2ccc(-c3ccccc3)cc2)NC(=O)[C@@H](CCc2ccccc2)N1 [Compound 466] ([βAla][d(hPhe)][dBip]F[Phe(4-COOH)]-OH; lactam N-5)
Second: O=C1CCC(=O)N[C@H](CCc2ccccc2)C(=O)N[C@@H](Cc2cccc(-c3ccccc3)c2)C(=O)N[C@H](Cc2ccccc2)C(=O)N[C@H](C(=O)O)Cc2ccc(cc2)N1 [Compound 113] ([d(hPhe)][Phe(3-Ph)][dF][Phe(4-NH2)]-OH; linker N-4 via Suc)
The IC50 of the first is higher: over 100 µM for the first, 10 to 30 µM for the second.

Compared with `O=C1CCCCc2cn(nn2)C[C@@H](C(=O)O)NC(=O)[C@@H](CCc2ccccc2)NC(=O)[C@H](Cc2ccc(-c3ccccc3)cc2)NC(=O)[C@@H](Cc2cccs2)N1` [Compound 544], `O=C(O)[C@@H]1Cc2ccc(cc2)NC(=O)[C@H](O)[C@@H](O)C(=O)N[C@H](Cc2cccs2)C(=O)N[C@@H](Cc2ccc(-c3ccccc3)cc2)C(=O)N[C@H](Cc2ccco2)C(=O)N1` [Compound 284] is higher in IC50: under 10 µM for the first, 10 to 30 µM for the second. The first is the more potent here.

`O=C1COc2ccc(cc2)C[C@@H](C(=O)N(CCS(=O)(=O)O)C(CO)(CO)CO)NC(=O)[C@H](CCc2ccccc2)NC(=O)[C@@H](Cc2ccc(-c3ccccc3)cc2)NC(=O)[C@H](Cc2ccncc2)N1` [Compound 606] showed an IC50 of under 10 µM.
